Laboratory results reported in patent publication US11623919B2, “Heterocyclic P2X7 antagonists” (AXXAM S.P.A., priority 2017, dated 2023).

How the values were obtained:
[1] = molecular target: T1, P2X7 receptor (Mus musculus, UniProt Q9Z1M0); experiment: Screen Quest Fluo-8 No Wash Calcium Assay (Bz-ATP evoked Ca2+ influx, FLIPR); assay type: cell-based; conditions: mP2X7; HEK-293 cells stably transfected with P2X7 receptor, Bz-ATP at EC80, Fluo-8 NW; potency ranges A-D
T1 construct: mP2X7 (IC50; nM); other: mP2X7; HEK-293 cells stably transfected with P2X7 receptor, Bz-ATP at EC80, Fluo-8 NW; potency
T1 sequence (Q9Z1M0 1-595): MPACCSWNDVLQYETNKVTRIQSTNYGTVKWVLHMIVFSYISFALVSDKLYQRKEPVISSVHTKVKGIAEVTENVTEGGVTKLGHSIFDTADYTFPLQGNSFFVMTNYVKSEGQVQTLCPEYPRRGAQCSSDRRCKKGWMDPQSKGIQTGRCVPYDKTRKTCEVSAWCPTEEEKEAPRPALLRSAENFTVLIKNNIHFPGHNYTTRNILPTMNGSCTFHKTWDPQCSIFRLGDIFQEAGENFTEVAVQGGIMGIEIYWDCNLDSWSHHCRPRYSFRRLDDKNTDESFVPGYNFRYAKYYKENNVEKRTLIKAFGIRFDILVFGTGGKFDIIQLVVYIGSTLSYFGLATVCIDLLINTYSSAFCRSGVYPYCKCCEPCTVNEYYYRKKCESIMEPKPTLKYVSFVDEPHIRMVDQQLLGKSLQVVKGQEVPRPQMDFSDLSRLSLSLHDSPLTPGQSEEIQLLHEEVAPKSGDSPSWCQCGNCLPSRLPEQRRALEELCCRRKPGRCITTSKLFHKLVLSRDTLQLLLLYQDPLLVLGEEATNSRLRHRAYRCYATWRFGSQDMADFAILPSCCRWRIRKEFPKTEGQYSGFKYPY
Summary of the method: (§1)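 Compounds were added to Fluo-8-loaded P2X7-transfected HEK-293 cells 5 min before an EC80 Bz-ATP challenge, and Ca2+ influx was then recorded for 3 min. Buffer held 0.3 mM Ca2+ and no Mg2+. Inhibition was normalised to A438079, giving IC50 values.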

[2] = molecular target: T2, P2X7 receptor (Rattus norvegicus, UniProt Q64663); experiment: as above; assay type: cell-based; conditions: rP2X7; HEK-293 cells stably transfected with P2X7 receptor, Bz-ATP at EC80, Fluo-8 NW; potency ranges A-D
T2 construct: rP2X7 (IC50; nM); other: rP2X7; HEK-293 cells stably transfected with P2X7 receptor, Bz-ATP at EC80, Fluo-8 NW; potency
T2 sequence (Q64663 1-595): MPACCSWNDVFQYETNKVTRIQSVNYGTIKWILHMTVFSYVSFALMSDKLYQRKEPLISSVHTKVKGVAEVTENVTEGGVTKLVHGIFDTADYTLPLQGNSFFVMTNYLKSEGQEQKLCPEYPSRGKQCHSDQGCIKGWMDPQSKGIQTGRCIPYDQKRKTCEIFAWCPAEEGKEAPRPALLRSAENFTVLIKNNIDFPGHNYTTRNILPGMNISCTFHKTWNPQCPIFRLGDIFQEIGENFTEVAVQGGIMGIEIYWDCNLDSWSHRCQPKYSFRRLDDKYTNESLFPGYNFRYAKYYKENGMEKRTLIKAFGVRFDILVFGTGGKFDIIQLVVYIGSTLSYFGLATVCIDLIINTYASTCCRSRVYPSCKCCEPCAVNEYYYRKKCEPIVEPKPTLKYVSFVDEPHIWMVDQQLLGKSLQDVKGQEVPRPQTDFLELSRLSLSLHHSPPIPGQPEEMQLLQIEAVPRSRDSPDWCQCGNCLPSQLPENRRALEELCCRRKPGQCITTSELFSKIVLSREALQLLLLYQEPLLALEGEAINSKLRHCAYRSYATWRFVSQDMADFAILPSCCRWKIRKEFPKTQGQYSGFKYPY
Summary of the method: as §1

Structure (SMILES) | IC50 [1] | IC50 [2]
CC1(C)CCC(Cn2c(Cc3c(F)cccc3Cl)noc2=O)CC1 [Example 86, 3-[(2-chloro-6-fluorophenyl)methyl]-4-[(4,4-dimethylcyclohexyl)methyl]-4,5-dihydro-1,2,4-oxadiazol-5-one] | 200 to 1000 nM | 200 to 1000 nM
O=c1onc(Cc2c(F)cccc2Cl)n1Cc1cccc(F)c1 [Example 26, 3-[(2-chloro-6-fluorophenyl)methyl]-4-[(3-fluorophenyl)methyl]-4,5-dihydro-1,2,4-oxadiazol-5-one] | 200 to 1000 nM | < 200 nM
O=c1onc(Cc2c(F)cccc2Cl)n1CC1CCC(F)(F)CC1 [Example 84, 3-[(2-chloro-6-fluorophenyl)methyl]-4-[(4,4-difluorocyclohexyl)methyl]-4,5-dihydro-1,2,4-oxadiazol-5-one] | < 200 nM | < 200 nM
O=c1onc(Cc2ccc(F)cc2)n1Cc1c(F)cccc1Cl [Example 1, 4-[(2-chloro-6-fluorophenyl)methyl]-3-[(4-fluorophenyl)methyl]-4,5-dihydro-1,2,4-oxadiazol-5-one] | 1000 to 10000 nM | 200 to 1000 nM
O=c1onc(Cc2c(F)cccc2Cl)n1CC1CC2CCC1C2 (centres unmarked) [Example 88, 4-{bicyclo[2.2.1]heptan-2-ylmethyl}-3-[(2-chloro-6-fluorophenyl)methyl]-4,5-dihydro-1,2,4-oxadiazol-5-one] | 200 to 1000 nM | < 200 nM
O=c1onc(Cc2cccc(Cl)c2Cl)n1Cc1ccc(F)cc1 [Example 71, 3-[(2,3-dichlorophenyl)methyl]-4-[(4-fluorophenyl)methyl]-4,5-dihydro-1,2,4-oxadiazol-5-one] | 1000 to 10000 nM | 1000 to 10000 nM
O=c1onc(Cc2c(F)cccc2Cl)n1Cc1ccc(C(F)(F)F)o1 [Example 66, 3-[(2-chloro-6-fluorophenyl)methyl]-4-{[5-(trifluoromethyl)furan-2-yl]methyl}-4,5-dihydro-1,2,4-oxadiazol-5-one] | 1000 to 10000 nM | 200 to 1000 nM
O=c1onc(Cc2c(F)cccc2Cl)n1CC1CCCCO1 (centres unmarked) [Example 94, 3-[(2-chloro-6-fluorophenyl)methyl]-4-(oxan-2-ylmethyl)-4,5-dihydro-1,2,4-oxadiazol-5-one] | 1000 to 10000 nM | 200 to 1000 nM
O=c1onc(Cc2ccc(F)cc2Cl)n1Cc1ccc(F)cc1 [Example 73, 3-[(2-chloro-4-fluorophenyl)methyl]-4-[(4-fluorophenyl)methyl]-4,5-dihydro-1,2,4-oxadiazol-5-one] | 1000 to 10000 nM | 200 to 1000 nM
O=c1onc(Cc2c(F)cccc2Cl)n1Cc1ccc(F)cc1Cl [Example 60, 4-[(2-chloro-4-fluorophenyl)methyl]-3-[(2-chloro-6-fluorophenyl)methyl]-4,5-dihydro-1,2,4-oxadiazol-5-one] | 1000 to 10000 nM | 1000 to 10000 nM
O=c1onc(Cc2c(F)cccc2Cl)n1Cc1ccc(F)cc1F [Example 61, 3-[(2-chloro-6-fluorophenyl)methyl]-4-[(2,4-difluorophenyl)methyl]-4,5-dihydro-1,2,4-oxadiazol-5-one] | 1000 to 10000 nM | 200 to 1000 nM
O=c1onc(Cc2ccccc2Cl)n1Cc1ccc(F)cc1 [Example 76, 3-[(2-chlorophenyl)methyl]-4-[(4-fluorophenyl)methyl]-4,5-dihydro-1,2,4-oxadiazol-5-one] | 1000 to 10000 nM | 200 to 1000 nM
Cc1cc(F)ccc1Cn1c(Cc2c(F)cccc2Cl)noc1=O [Example 25, 3-[(2-chloro-6-fluorophenyl)methyl]-4-[(4-fluoro-2-methylphenyl)methyl]-4,5-dihydro-1,2,4-oxadiazol-5-one] | 200 to 1000 nM | 200 to 1000 nM
O=c1onc(Cc2c(F)cccc2Cl)n1Cc1ccc(Cl)cc1 [Example 65, 3-[(2-chloro-6-fluorophenyl)methyl]-4-[(4-chlorophenyl)methyl]-4,5-dihydro-1,2,4-oxadiazol-5-one] | 1000 to 10000 nM | 200 to 1000 nM
O=c1onc(Cc2c(F)cccc2Cl)n1CC1CCCC1 [Example 85, 3-[(2-chloro-6-fluorophenyl)methyl]-4-(cyclopentylmethyl)-4,5-dihydro-1,2,4-oxadiazol-5-one] | 200 to 1000 nM | < 200 nM

Second part, the molecule after the results:

IC50 [1] | IC50 [2] | Structure (SMILES)
200 to 1000 nM | < 200 nM | O=c1onc(Cc2c(F)cccc2Cl)n1CC1CCC(F)(F)C1 (single isomer, unassigned) [Example 149, 3-(2-chloro-6-fluorobenzyl)-4-[(3,3-difluorocyclopentyl)methyl]-1,2,4-oxadiazol-5(4H)-one]
200 to 1000 nM | < 200 nM | O=c1onc(Cc2c(F)cccc2Cl)n1CC1CCC(F)(F)C1 (racemic) [Example 128, 3-[(2-chloro-6-fluorophenyl)methyl]-4-[(3,3-difluorocyclopentyl)methyl]-4,5-dihydro-1,2,4-oxadiazol-5-one]
1000 to 10000 nM | 200 to 1000 nM | O=c1snc(Cc2c(F)cccc2Cl)n1CC1CCCCC1 [Example 140, 3-[(2-chloro-6-fluorophenyl)methyl]-4-(cyclohexylmethyl)-4,5-dihydro-1,2,4-thiadiazol-5-one]
200 to 1000 nM | < 200 nM | O=c1onc(Cc2c(F)cccc2Cl)n1CC1CCCCC1(F)F (centres unmarked) [Example 97, 3-[(2-chloro-6-fluorophenyl)methyl]-4-[(2,2-difluorocyclohexyl)methyl]-4,5-dihydro-1,2,4-oxadiazol-5-one]
1000 to 10000 nM | 200 to 1000 nM | Cc1noc(C)c1Cc1noc(=O)n1CC1CCC(F)(F)CC1 [Example 211, 4-[(4,4-difluorocyclohexyl)methyl]-3-[(dimethyl-1,2-oxazol-4-yl)methyl]-4,5-dihydro-1,2,4-oxadiazol-5-one]
< 200 nM | < 200 nM | O=c1onc(CC2CCC(F)(F)CC2)n1Cc1c(F)cccc1Cl [Example 132, 4-[(2-chloro-6-fluorophenyl)methyl]-3-[(4,4-difluorocyclohexyl)methyl]-4,5-dihydro-1,2,4-oxadiazol-5-one]
1000 to 10000 nM | 200 to 1000 nM | Cc1noc(C)c1Cc1noc(=O)n1CC1CCCCC1 [Example 210, 4-(cyclohexylmethyl)-3-[(dimethyl-1,2-oxazol-4-yl)methyl]-4,5-dihydro-1,2,4-oxadiazol-5-one]
1000 to 10000 nM | 200 to 1000 nM | O=c1onc(Cc2cccc(Cl)c2Cl)n1CC1CCCCC1 [Example 115, 4-(cyclohexylmethyl)-3-[(2,3-dichlorophenyl)methyl]-4,5-dihydro-1,2,4-oxadiazol-5-one]
200 to 1000 nM | < 200 nM | O=c1onc(Cc2ccccc2Cl)n1CC1CCCCC1 [Example 117, 3-[(2-chlorophenyl)methyl]-4-(cyclohexylmethyl)-4,5-dihydro-1,2,4-oxadiazol-5-one]
< 200 nM | < 200 nM | O=c1snc(Cc2c(F)cccc2Cl)n1CC1CCC(F)(F)CC1 [Example 141, 3-[(2-chloro-6-fluorophenyl)methyl]-4-[(4,4-difluorocyclohexyl)methyl]-4,5-dihydro-1,2,4-thiadiazol-5-one]
200 to 1000 nM | < 200 nM | O=c1onc(Cc2ccccc2F)n1CC1CCCCC1 [Example 120, 4-(cyclohexylmethyl)-3-[(2-fluorophenyl)methyl]-4,5-dihydro-1,2,4-oxadiazol-5-one]
200 to 1000 nM | < 200 nM | O=c1onc(Cc2ccc(F)cc2F)n1CC1CCCCC1 [Example 119, 4-(cyclohexylmethyl)-3-[(2,4-difluorophenyl)methyl]-4,5-dihydro-1,2,4-oxadiazol-5-one]
200 to 1000 nM | < 200 nM | O=c1onc(CC2CCCCC2)n1Cc1c(F)cccc1Cl [Example 130, 4-[(2-chloro-6-fluorophenyl)methyl]-3-(cyclohexylmethyl)-4,5-dihydro-1,2,4-oxadiazol-5-one]
